Test results reported in patent US5179088A, “1-Carba(dethia)cephalosporin antibiotics” (Eli Lilly and Company, priority 1990, dated 1993).

How the values were obtained:
Type in all cases: cell-based
Design in all cases: unit not given here
Proteus morg = test: in vitro antibacterial activity, agar dilution (Proteus morg)
Description: (§1) *minimum inhibitory concentrations were determined by the Agardilution

Pseudomonas = test: in vitro antibacterial activity, agar dilution (Pseudomonas)
Description: as §1

Enterbacter Cloacea = test: in vitro antibacterial activity, agar dilution (Enterobacter cloacae)
Description: as §1

E. coli = test: in vitro antibacterial activity, agar dilution (E. coli)
Description: as §1

Enterbacter Aerogenes = test: in vitro antibacterial activity, agar dilution (Enterobacter aerogenes)
Description: as §1

Proteus rett = test: in vitro antibacterial activity, agar dilution (Proteus rett)
Description: as §1

Streptococcus D = test: in vitro antibacterial activity, agar dilution (Streptococcus D)
Description: as §1

Staphylococcus Aureus = test: in vitro antibacterial activity, agar dilution (Staphylococcus aureus)
Description: as §1

Proteus incon = test: in vitro antibacterial activity, agar dilution (Proteus incon)
Description: as §1

Citro = test: in vitro antibacterial activity, agar dilution (Citro)
Description: as §1

Serratia = test: in vitro antibacterial activity, agar dilution (Serratia)
Description: as §1

Acin = test: in vitro antibacterial activity, agar dilution (Acin)
Description: as §1

Salmonella = test: in vitro antibacterial activity, agar dilution (Salmonella)
Description: as §1

Streptococcus A = test: in vitro antibacterial activity, agar dilution (Streptococcus A)
Description: as §1

H. Influ. = test: in vitro antibacterial activity, agar dilution (H. influ.)
Description: as §1

Staphylococcus Epi = test: in vitro antibacterial activity, agar dilution (Staphylococcus epi)
Description: as §1

Klebsiella = test: in vitro antibacterial activity, agar dilution (Klebsiella)
Description: as §1

Streptococcus pn = test: in vitro antibacterial activity, agar dilution (Streptococcus pn); conditions: strain PARK
Description: as §1

Shig. sonn = test: in vitro antibacterial activity, agar dilution (Shig. sonn); conditions: strain N9
Description: as §1

CO/N=C(\C(=O)N[C@@H]1C(=O)N2C(C(=O)O)=C(c3csc(-c4ccc(O)c(O)c4)n3)CC[C@H]12)c1csc(N)n1 [Example 40, Sodium 7β-[(2-aminothiazol-4-yl)-Z-methoximinoacetylamino]-1-carba-(1-dethia)-3-2-(3,4-dihydroxyphenyl)thiazol-4-yl-3-cephem-4-carboxylate]
minimum inhibitory concentration (Proteus morg; strain PR15): 4 | minimum inhibitory concentration (Proteus morg; strain PR15, retest): 4 | minimum inhibitory concentration (Pseudomonas; strain PS18): 64 | minimum inhibitory concentration (Pseudomonas; strain PS18, retest): 64 | minimum inhibitory concentration (Pseudomonas; strain PS72, retest): 128 | minimum inhibitory concentration (Pseudomonas; strain X239, retest): 128 | minimum inhibitory concentration (Pseudomonas; strain X528): 8 | minimum inhibitory concentration (Pseudomonas; strain X528, retest): 16 | minimum inhibitory concentration (Enterbacter Cloacea; strain 265A): 64 | minimum inhibitory concentration (Enterbacter Cloacea; strain 265A, retest): 32 | minimum inhibitory concentration (Enterbacter Cloacea; strain EB5): .25 | minimum inhibitory concentration (Enterbacter Cloacea; strain EB5, retest): .25 | minimum inhibitory concentration (E. coli; strain EC14): .06 | minimum inhibitory concentration (E. coli; strain EC14, retest): .06 | minimum inhibitory concentration (E. coli; strain N10): .125 | minimum inhibitory concentration (E. coli; strain N10, retest): .125 | minimum inhibitory concentration (E. coli; strain TEM): .06 | minimum inhibitory concentration (E. coli; strain TEM, retest): .03 | minimum inhibitory concentration (Enterbacter Aerogenes; strain C32): .5 | minimum inhibitory concentration (Enterbacter Aerogenes; strain C32, retest): .5 | minimum inhibitory concentration (Enterbacter Aerogenes; strain EB17): .03 | minimum inhibitory concentration (Enterbacter Aerogenes; strain EB17, retest): .06 | minimum inhibitory concentration (Proteus rett; strain C24): .125 | minimum inhibitory concentration (Proteus rett; strain C24, retest): .25 | minimum inhibitory concentration (Streptococcus D; strain 2041): 16 | minimum inhibitory concentration (Streptococcus D; strain 2041, retest): 16 | minimum inhibitory concentration (Streptococcus D; strain X66): > 128 | minimum inhibitory concentration (Streptococcus D; strain X66, retest): > 128 | minimum inhibitory concentration (Staphylococcus Aureus; strain S13E): 64 | minimum inhibitory concentration (Staphylococcus Aureus; strain S13E, retest): 64 | minimum inhibitory concentration (Staphylococcus Aureus; strain V41): 16 | minimum inhibitory concentration (Staphylococcus Aureus; strain V41, retest): 8 | minimum inhibitory concentration (Staphylococcus Aureus; strain X1.1): 8 | minimum inhibitory concentration (Staphylococcus Aureus; strain X1.1, retest): 8 | minimum inhibitory concentration (Staphylococcus Aureus; strain X400): > 128 | minimum inhibitory concentration (Staphylococcus Aureus; strain X400, retest): > 128 | minimum inhibitory concentration (Proteus incon; strain PR33): .125 | minimum inhibitory concentration (Proteus incon; strain PR33, retest): .25 | minimum inhibitory concentration (Citro; strain CF17): 4 | minimum inhibitory concentration (Citro; strain CF17, retest): 4 | minimum inhibitory concentration (Serratia; strain SE3): 1 | minimum inhibitory concentration (Serratia; strain SE3, retest): 2 | minimum inhibitory concentration (Serratia; strain X99): .25 | minimum inhibitory concentration (Serratia; strain X99, retest): .125 | minimum inhibitory concentration (Acin; strain AC12): 4 | minimum inhibitory concentration (Acin; strain AC12, retest): 2 | minimum inhibitory concentration (Salmonella; strain 1335): .06 | minimum inhibitory concentration (Salmonella; strain 1335, retest): .06 | minimum inhibitory concentration (Salmonella; strain X514): .03 | minimum inhibitory concentration (Salmonella; strain X514, retest): .03 | minimum inhibitory concentration (Streptococcus A; strain C203): .06 | minimum inhibitory concentration (Streptococcus A; strain C203, retest): .125 | minimum inhibitory concentration (H. Influ.; res, strain 76): .015 | minimum inhibitory concentration (H. Influ.; res, strain 76, retest): .03 | minimum inhibitory concentration (H. Influ.; sens, strain C.L.): .125 | minimum inhibitory concentration (H. Influ.; sens, strain C.L., retest): .125 | minimum inhibitory concentration (Staphylococcus Epi; strain 222): 16 | minimum inhibitory concentration (Staphylococcus Epi; strain 222, retest): 16 | minimum inhibitory concentration (Staphylococcus Epi; strain 270): 32 | minimum inhibitory concentration (Staphylococcus Epi; strain 270, retest): 16 | minimum inhibitory concentration (Klebsiella; strain KAE): 8 | minimum inhibitory concentration (Klebsiella; strain KAE, retest): 4 | minimum inhibitory concentration (Klebsiella; strain X26): .015 | minimum inhibitory concentration (Klebsiella; strain X26, retest): .03 | minimum inhibitory concentration (Klebsiella; strain X68): .06 | minimum inhibitory concentration (Klebsiella; strain X68, retest): .06 | minimum inhibitory concentration (Streptococcus pn): .125 | minimum inhibitory concentration (Streptococcus pn; retest): .125

Nc1nc(C2=C(C(=O)O)N3C(=O)[C@@H](NC(=O)[C@H](N)c4ccccc4)[C@H]3CC2)cs1 [Example 41, 7β-(D-phenylglycylamino)-1-carba-(1-dethia)-3-(2-aminothiazol-4-yl)-3-cephem-4-carboxylic acid]
minimum inhibitory concentration (Proteus morg; strain PR15): 128 | minimum inhibitory concentration (Pseudomonas; strain PS18): > 128 | minimum inhibitory concentration (Pseudomonas; strain PS72): > 128 | minimum inhibitory concentration (Pseudomonas; strain X239): > 128 | minimum inhibitory concentration (Pseudomonas; strain X528): > 128 | minimum inhibitory concentration (Enterbacter Cloacea; strain 265A): > 128 | minimum inhibitory concentration (Enterbacter Cloacea; strain EB5): 128 | minimum inhibitory concentration (E. coli; strain EC14): 64 | minimum inhibitory concentration (E. coli; strain N10): 128 | minimum inhibitory concentration (E. coli; strain TEM): 64 | minimum inhibitory concentration (Enterbacter Aerogenes; strain C32): 128 | minimum inhibitory concentration (Enterbacter Aerogenes; strain EB17): 128 | minimum inhibitory concentration (Proteus rett; strain C24): > 128 | minimum inhibitory concentration (Streptococcus D; strain 2041): > 128 | minimum inhibitory concentration (Streptococcus D; strain X66): > 128 | minimum inhibitory concentration (Staphylococcus Aureus; strain S13E): 64 | minimum inhibitory concentration (Staphylococcus Aureus; strain V41): 32 | minimum inhibitory concentration (Staphylococcus Aureus; strain X1.1): 4 | minimum inhibitory concentration (Staphylococcus Aureus; strain X400): > 128 | minimum inhibitory concentration (Proteus incon; strain PR33): 128 | minimum inhibitory concentration (Citro; strain CF17): > 128 | minimum inhibitory concentration (Serratia; strain SE3): 128 | minimum inhibitory concentration (Serratia; strain X99): 128 | minimum inhibitory concentration (Acin; strain AC12): > 128 | minimum inhibitory concentration (Salmonella; strain 1335): 128 | minimum inhibitory concentration (Salmonella; strain X514): 128 | minimum inhibitory concentration (Streptococcus A; strain C203): 2 | minimum inhibitory concentration (H. Influ.; res, strain 76): 32 | minimum inhibitory concentration (H. Influ.; sens, strain C.L.): 64 | minimum inhibitory concentration (Staphylococcus Epi; strain 222): 16 | minimum inhibitory concentration (Staphylococcus Epi; strain 270): 32 | minimum inhibitory concentration (Klebsiella; strain KAE): 128 | minimum inhibitory concentration (Klebsiella; strain X26): 16 | minimum inhibitory concentration (Klebsiella; strain X68): 128 | minimum inhibitory concentration (Streptococcus pn): 2

CO/N=C(\C(=O)N[C@@H]1C(=O)N2C(C(=O)O)=C(c3csc(-c4ccc([N+](=O)[O-])cc4)n3)CC[C@H]12)c1csc(N)n1 [Example 35, Sodium 7β-[(2-aminothiazol-4-yl)-Z-methoximinoacetylamino]-1-carba-(1-dethia)-3-[2-(4-nitrophenyl)thiazol-4-yl]-3-cephem-4-carboxylate]
minimum inhibitory concentration (Proteus morg; strain PR15): .5 | minimum inhibitory concentration (Enterbacter Cloacea; strain 265A): 16 | minimum inhibitory concentration (Enterbacter Cloacea; strain EB5): 1 | minimum inhibitory concentration (Shig. sonn): .5 | minimum inhibitory concentration (E. coli; strain EC14): .5 | minimum inhibitory concentration (E. coli; strain N10): 1 | minimum inhibitory concentration (E. coli; strain TEM): .5 | minimum inhibitory concentration (Enterbacter Aerogenes; strain C32): .5 | minimum inhibitory concentration (Enterbacter Aerogenes; strain EB17): 1 | minimum inhibitory concentration (Proteus rett; strain C24): .25 | minimum inhibitory concentration (Streptococcus D; strain 2041): 4 | minimum inhibitory concentration (Streptococcus D; strain X66): > 128 | minimum inhibitory concentration (Staphylococcus Aureus; strain S13E): 32 | minimum inhibitory concentration (Staphylococcus Aureus; strain V41): 2 | minimum inhibitory concentration (Staphylococcus Aureus; strain X1.1): .5 | minimum inhibitory concentration (Staphylococcus Aureus; strain X400): > 128 | minimum inhibitory concentration (Proteus incon; strain PR33): .25 | minimum inhibitory concentration (Citro; strain CF17): 2 | minimum inhibitory concentration (Serratia; strain SE3): 4 | minimum inhibitory concentration (Serratia; strain X99): 4 | minimum inhibitory concentration (Acin; strain AC12): 64 | minimum inhibitory concentration (Salmonella; strain 1335): 4 | minimum inhibitory concentration (Salmonella; strain X514): 1 | minimum inhibitory concentration (Streptococcus A; strain C203): < .008 | minimum inhibitory concentration (H. Influ.; res, strain 76): .015 | minimum inhibitory concentration (H. Influ.; sens, strain C.L.): .03 | minimum inhibitory concentration (Staphylococcus Epi; strain 222): 2 | minimum inhibitory concentration (Staphylococcus Epi; strain 270): 4 | minimum inhibitory concentration (Klebsiella; strain KAE): .5 | minimum inhibitory concentration (Klebsiella; strain X26): < .008 | minimum inhibitory concentration (Klebsiella; strain X68): 1 | minimum inhibitory concentration (Streptococcus pn): < .008
